The values below come from patent US10519143B2, “Substituted-indole-compounds as estrogen receptor down-regulators” (LUOXIN PHARMACEUTICAL (SHANGHAI) CO., LTD, priority 2016, dated 2019).

For one test, the system named is MCF-7 cells. In words: MCF-7 cell proliferation inhibition assay. It counts as cell-based. The settings on record: Homo sapiens, MCF7, 144 h, read-out: anti-proliferation in MCF-7 cells (nM). As to the method:
Experimental Reagent: RPMI 1640 medium, fetal bovine serum, Promega CellTiter-Glo reagent. The cell line MCF-7 was purchased from The European Collection of Authenticated Cell Cultures (ECACC). Envision Multilabel Reader (PerkinElmer). Experimental Method: […] The cell plate was placed in a carbon dioxide incubator overnight. […] The cell plate was incubated in a carbon dioxide incubator for 6 days. Promega CellTiter-Glo reagent was added to the cell plate at 25 μL per well, cells were incubated for 10 minutes at room temperature to stabilize the luminescence signal, which was measured using PerkinElmer Envision Multilabel Reader. Data Analysis: […] (Model 205 in XLFIT5, iDBS)
As to `CC/C(=C(/c1ccc(/C=C/C(=O)O)cc1)c1cc2ccccc2[nH]1)c1cc(Cl)sc1Cl` [Compound I-17], the IC50 was found to be 8.29 nM.
Same read-out and setting: with `CC/C(=C(/c1ccc(/C=C/C(=O)O)cc1)c1cc2ccccc2[nH]1)c1ccsc1C#N` [Compound I-18] the figure was 22 nM; with `CC/C(=C(/c1ccc(/C=C/C(=O)O)cc1)c1cc2ccccc2[nH]1)c1c(C)cccc1Cl` [Compound I-29], 30 nM; with `CC/C(=C(/c1ccc(/C=C/C(=O)O)cc1)c1cc2ccccc2[nH]1)c1ccc(F)cc1F` [Compound I-45], 103 nM.
Still for that read-out and setting: with `CC/C(=C(\c1cc2ccccc2[nH]1)c1c(F)cc(/C=C/C(=O)O)cc1F)c1ccc(F)cc1Cl` [Compound I-57] the figure was 32 nM.
On the same count and under the same terms, with `CC/C(=C(/c1ccc(OCCN2CC(CF)C2)cc1)c1cc2ccccc2[nH]1)c1ccc(F)cc1Cl` [II-1] the figure was 4.57 nM.

The same test, now with this note: Homo sapiens, MCF7, 144 h; MCF-7 cells, 6 days incubation, CellTiter-Glo; read-out: anti-proliferation in MCF-7 cells.
For the compound `CC/C(=C(/c1ccc(/C=C/C(=O)O)cc1)c1cc2ccccc2[nH]1)c1cccc(OC(F)(F)F)c1` [Compound I-2], the IC50 was found to be 282 nM.
Still for that read-out and setting: with `CC/C(=C(/c1ccc(/C=C/C(=O)O)cc1)c1cc2ccccc2[nH]1)c1ccccc1OC(F)(F)F` [Compound I-3] the figure was 206 nM; with `CC/C(=C(/c1ccc(/C=C/C(=O)O)cc1)c1cc2ccccc2[nH]1)c1cccc(C(F)(F)F)c1` [Compound I-4], 325 nM; with `CC/C(=C(/c1ccc(/C=C/C(=O)O)cc1)c1cc2ccccc2[nH]1)c1ccccc1C(F)(F)F` [Compound I-5], 8.04 nM.
On the same count and under the same terms, with `CC/C(=C(/c1ccc(/C=C/C(=O)O)cc1)c1cc2ccccc2[nH]1)c1cccs1` [Compound I-6] the figure was 321 nM.
Take `CC/C(=C(/c1ccc(/C=C/C(=O)O)cc1)c1[nH]c2ccccc2c1Br)c1ccc(F)cc1Cl` [Compound I-7]: the IC50 amounted to 9.52 nM.
On to `CC/C(=C(/c1ccc(/C=C/C(=O)O)cc1)c1[nH]c2ccccc2c1Cl)c1ccc(F)cc1Cl` [Compound I-8], for which the IC50 was determined as 5.59 nM.
For `CC/C(=C(/c1ccc(/C=C/C(=O)O)cc1)c1cc2ccc(F)cc2[nH]1)c1ccc(F)cc1Cl` [Compound I-9], the IC50 was determined as 167 nM.
For `CC/C(=C(/c1ccc(/C=C/C(=O)O)cc1)c1[nH]c2ccccc2c1Cl)c1ccccc1C(F)(F)F` [Compound I-10], the IC50 was 13 nM.
On the same count and under the same terms, the same measure for `CC/C(=C(/c1ccc(/C=C/C(=O)O)cc1)c1[nH]c2ccccc2c1Br)c1ccccc1C(F)(F)F` [Compound I-11]: 8.53 nM; for `CC/C(=C(/c1ccc(/C=C/C(=O)O)cc1)c1cc2ccccc2[nH]1)c1ccc(F)cc1C(F)(F)F` [Compound I-12]: 13 nM.
On to `CC/C(=C(/c1ccc(/C=C/C(=O)O)cc1)c1cc2ccccc2[nH]1)c1ccc(C(F)(F)F)cc1Cl` [Compound I-13], for which the IC50 is 27 nM.
On the same count and under the same terms, with `CC/C(=C(/c1ccc(/C=C/C(=O)O)cc1)c1cc2ccccc2[nH]1)c1ccc(Cl)cc1C(F)(F)F` [Compound I-14] the figure was 4.11 nM; with `CC/C(=C(/c1ccc(/C=C/C(=O)O)cc1)c1[nH]c2ccccc2c1Cl)c1ccsc1C#N` [Compound I-15], 7.56 nM.
In the case of `CC/C(=C(/c1ccc(/C=C/C(=O)O)cc1)c1[nH]c2ccccc2c1C)c1ccc(F)cc1Cl` [Compound I-19], the IC50 turned out to be 4.78 nM.
On to `CC/C(=C(/c1ccc(/C=C/C(=O)O)cc1)c1cc2ccccc2[nH]1)c1ccc(Cl)cc1C#N` [Compound I-21], for which the IC50 was found to be 14 nM.
Still for that read-out and setting: the same measure for `CC/C(=C(/c1ccc(/C=C/C(=O)O)cc1)c1[nH]c2ccccc2c1Cl)c1ccc(Cl)cc1C#N` [Compound I-22]: 0.86 nM; for `CC/C(=C(/c1ccc(/C=C/C(=O)O)cc1)c1[nH]c2ccccc2c1C#N)c1ccc(F)cc1Cl` [Compound I-23]: 4.84 nM; for `CC/C(=C(/c1ccc(/C=C/C(=O)O)cc1)c1[nH]c2ccccc2c1Cl)c1ccc(Cl)cc1` [Compound I-24]: 21.5 nM.
Still for that read-out and setting: the same measure for `CC(C)C/C(=C(/c1ccc(/C=C/C(=O)O)cc1)c1cc2ccccc2[nH]1)c1ccc(F)cc1Cl` [Compound I-27]: 8.36 nM; for `CC/C(=C(/c1ccc(/C=C/C(=O)O)cc1)c1[nH]c2ccccc2c1Cl)c1ccc(Cl)c(C)c1` [Compound I-28]: 69 nM; for `CC/C(=C(/c1ccc(/C=C/C(=O)O)cc1)c1cc2ccccc2[nH]1)c1ccc2c(c1)OCCO2` [Compound I-30]: 48 nM.
For `CC/C(=C(/c1ccc(/C=C/C(=O)O)cc1)c1[nH]c2ccccc2c1Cl)c1ccc2c(c1)OCCO2` [Compound I-31], the IC50 was determined as 3.66 nM.
As for `CC/C(=C(/c1ccc(/C=C/C(=O)O)cc1)c1cc2ccccc2[nH]1)c1ccc(OC)cc1` [Compound I-32], the IC50 was found to be 61 nM.
On to `CC/C(=C(/c1ccc(/C=C/C(=O)O)cc1)c1[nH]c2ccccc2c1Cl)c1ccc(OC)cc1` [Compound I-33], for which the IC50 was 2.86 nM.
Consider `CC/C(=C(/c1ccc(/C=C/C(=O)O)cc1)c1cc2ccccc2[nH]1)c1ccc(C#N)cc1Cl` [Compound I-34], for which the IC50 came out at 49 nM.
Turning to `CC/C(=C(/c1ccc(/C=C/C(=O)O)cc1)c1[nH]c2ccccc2c1Cl)c1cc(Cl)sc1Cl` [Compound I-35], the IC50 was 20 nM.
As to `CC/C(=C(/c1ccc(/C=C/C(=O)O)cc1)c1[nH]c2ccccc2c1C#N)c1cc(Cl)sc1Cl` [Compound I-36], the IC50 was found to be 6.84 nM.
Take `CC/C(=C(/c1ccc(/C=C/C(=O)O)cc1)c1cc2ccccc2[nH]1)c1ccc(Cl)cc1Cl` [Compound I-37]: the IC50 was found to be 11 nM.
For `CC/C(=C(/c1ccc(/C=C/C(=O)O)cc1)c1[nH]c2ccccc2c1F)c1ccc(F)cc1Cl` [Compound I-40], the IC50 was found to be 2.31 nM.
With `CC/C(=C(/c1ccc(/C=C/C(=O)O)cc1)c1cc2ccccc2[nH]1)c1ccc(OC)cc1Cl` [Compound I-41], the IC50 was 3.91 nM.
As for `CC/C(=C(/c1ccc(/C=C/C(=O)O)cc1)c1[nH]c2ccccc2c1C#N)c1ccc(OC)cc1Cl` [Compound I-42], the IC50 was 0.77 nM.
Consider `CC/C(=C(/c1ccc(/C=C/C(=O)O)cc1)c1[nH]c2ccccc2c1Cl)c1ccc(OC)cc1C#N` [Compound I-43], for which the IC50 amounted to 1.56 nM.
As for `CC/C(=C(/c1ccc(/C=C/C(=O)O)cc1)c1[nH]c2ccccc2c1Cl)c1ccc(Cl)cc1C(F)(F)F` [Compound I-44], the IC50 was 5.84 nM.
In the case of `CC/C(=C(/c1ccc(/C=C/C(=O)O)cc1)c1cc2cnccc2[nH]1)c1ccc(F)cc1Cl` [Compound I-46], the IC50 worked out at 393 nM.
As to `CC/C(=C(/c1ccc(/C=C/C(N)=O)cc1)c1cc2ccccc2[nH]1)c1ccc(Cl)cc1C(F)(F)F` [Compound I-47], the IC50 turned out to be 4.27 nM.
`CC/C(=C(/c1ccc(/C=C/C(=O)NS(C)(=O)=O)cc1)c1cc2ccccc2[nH]1)c1ccc(Cl)cc1C(F)(F)F` [Compound I-48]: the IC50 turned out to be 4.88 nM.
`CC/C(=C(/c1ccc(/C=C/C(=O)O)cc1)c1cc2ccccc2[nH]1)c1ccccc1C#N` [Compound I-49]: the IC50 came to 42 nM.
With `CC/C(=C(/c1ccc(/C=C/C(=O)O)cc1)c1cc2ccccc2[nH]1)c1ccccc1C` [Compound I-50], the IC50 came out at 33 nM.
On to `CC/C(=C(/c1ccc(/C=C/C(=O)O)cc1)c1cc2ccccc2[nH]1)c1ccccc1Cl` [Compound I-51], for which the IC50 worked out at 9.24 nM.
As to `CC/C(=C(/c1ccc(/C=C/C(=O)O)cc1)c1cc2ccccc2[nH]1)c1cccc(F)c1C#N` [Compound I-52], the IC50 turned out to be 40 nM.
As for `CC/C(=C(/c1ccc(/C=C/C(=O)O)cc1)c1[nH]c2ccccc2c1C#N)c1ccc(Cl)cc1Cl` [Compound I-53], the IC50 was 4.35 nM.
Same read-out and setting: the same measure for `CC/C(=C(/c1ccc(/C=C/C(=O)O)cc1)c1[nH]c2ccccc2c1C)c1cccc(C)c1` [Compound I-54]: 23 nM; for `CC/C(=C(/c1ccc(/C=C/C(=O)O)cc1)c1[nH]c2ccccc2c1Cl)c1ccc(Cl)nc1C#N` [Compound I-55]: 2.42 nM.
As to `CC/C(=C(/c1ccc(/C=C/C(=O)O)cc1)c1[nH]c2ccccc2c1Cl)c1csc(C)c1` [Compound I-56], the IC50 was found to be 35 nM.
`CC/C(=C(/c1ccc(OCCN2CC(CF)C2)cc1)c1cc2ccc(F)cc2[nH]1)c1ccc(F)cc1Cl` [II-2]: the IC50 was found to be 7.75 nM.
Consider `CC/C(=C(/c1ccc(OCCN2CC(CF)C2)cc1)c1cc2cc(F)ccc2[nH]1)c1ccc(F)cc1Cl` [II-3], for which the IC50 came out at 6.77 nM.
In the case of `CC/C(=C(\c1cc2ccccc2[nH]1)c1c(F)cc(OCCN2CC(CF)C2)cc1F)c1ccc(F)cc1Cl` [II-4], the IC50 came out at 6.86 nM.
Consider `CC/C(=C(/c1ccc(OCCN2CC(CF)C2)cc1)c1[nH]c2ccccc2c1Cl)c1ccc(F)cc1Cl` [II-5], for which the IC50 was 7.23 nM.
In the case of `CC/C(=C(/c1ccc(OCCN2CC(CF)C2)cc1)c1cc2ccccc2[nH]1)c1ccccc1Cl` [II-6], the IC50 was found to be 2.46 nM.
Still for that read-out and setting: with `CC/C(=C(/c1ccc(OCCN2CC(CF)C2)cc1)c1cc2ccccc2[nH]1)c1ccccc1C#N` [II-7] the figure was 2.61 nM.
`CC/C(=C(/c1ccc(OCCN2CC(CC#N)C2)cc1)c1[nH]c2ccccc2c1Cl)c1ccc(F)cc1Cl` [II-8]: the IC50 came to 5 nM.
For `CC/C(=C(/c1ccc(OCCN2CC(CC#N)C2)cc1)c1cc2ccccc2[nH]1)c1ccc(Cl)cc1C(F)(F)F` [II-9], the IC50 turned out to be 51 nM.
In the case of `CC/C(=C(/c1ccc(OCCN2CC(CC#N)C2)cc1)c1cc2ccccc2[nH]1)c1ccccc1Cl` [II-10], the IC50 was 3.92 nM.
As to `CC/C(=C(/c1ccc(OCCN2CC(CC#N)C2)cc1)c1cc2ccccc2[nH]1)c1ccccc1C#N` [II-11], the IC50 was determined as 7.43 nM.
With `CC/C(=C(/c1ccc(OCCN2CC(CC#N)C2)cc1)c1[nH]c2ccccc2c1Cl)c1ccc(Cl)cc1C#N` [II-12], the IC50 is 1.56 nM.
